This is an account of results in PMC6130489, “Caffeic acid methyl and ethyl esters exert potential antidiabetic effects on glucose and lipid metabolism in cultured murine insulin-sensitive cells through mechanisms implicating activation of AMPK” (Pharmaceutical Biology, 2017).

For one test, the system named is Akt. Put plainly: Western immunoblot phospho-Akt in H4IIE cells. It is filed as cell-based, rat. Particulars: 50 μM, 18 h. As for the experimental part:
(§1) L6 cells myotubes, H4IIE cells and 3T3-L1 adipocytes were treated with either CAME, CAEE (50 μM each) or vehicle (DMSO) for 18 h. Insulin (100 nM) or aminoimidazole carboxamide ribonucleotide (AICAR; 1 mM) were added to some vehicle-treated wells 30 min prior to the end of the treatment and served as the positives controls. Protein content was assayed by the bicinchoninic acid method (Thermo Scientific Pierce Protein Research, Rockford, IL) standardized to bovine serum albumin. Western immunoblotting was performed as described elsewhere (Eid et al. [2010]). […] Immunoreactive bands were visualized by enhanced chemiluminescence and quantified by the Scion Image program (Scion Corporation, Frederick, MD). […]
(§2) Figure 2. […] (A) H4IIE hepatocytes were treated for 16 h with several concentrations (12.5, 25, 50 and100 μM) of either CAME or CAEE and G6Pase activity was determined colorimetrically using a commercial glucose assay kit as described under Materials and Methods. […] (D) Data are expressed as phospho-AMPK/pan-AMPK and are given as mean ± SEM from 3 experiments. *p < 0.05 indicates a significant difference, **(p < 0.01), ***(p < 0.001) from the vehicle control group.
Background: A western blot detects proteins with antibodies after separation by electrophoresis.

Another test concerns AMPK. Put plainly: Western immunoblot phospho-AMPK in H4IIE cells. In kind it is cell-based, rat. Particulars: 50 μM, 18 h, AICAR 1 mM 30 min as positive control. As for the experimental part:
as §1, §2

For another test, the system named is PPAR-γ. The test is described as follows: Western immunoblot PPAR-γ in 3T3-L1 adipocytes. In kind it is cell-based, mouse. Particulars: 100 μM (Figure 4 legend). As for the experimental part: Insulin (100 nM) or aminoimidazole carboxamide ribonucleotide (AICAR; 1 mM) were added to some vehicle-treated wells 30 min prior to the end of the treatment and served as the positives controls. Protein content was assayed by the bicinchoninic acid method (Thermo Scientific Pierce Protein Research, Rockford, IL) standardized to bovine serum albumin. Western immunoblotting was performed as described elsewhere (Eid et al. [2010]). Membranes were incubated overnight with phospho-AMPK, phospho-Akt, GLUT4, GLUT1 and β-actin antibodies (1:1000 dilution, Cell Signalling Technology, Danvers, MA), or with PPAR-γ, SREBP-1 (1:200, Santa Cruze Biotechnology, Santa Cruz, CA), followed by incubation with HRP-coupled secondary antibody (1:10,000) for 1 h. Immunoreactive bands were visualized by enhanced chemiluminescence and quantified by the Scion Image program (Scion Corporation, Frederick, MD). Experiments were repeated on 3 different passages of cells, each passage containing all conditions in parallel.
Figure 4. CAME and CAEE inhibit C/EBP-β and PPAR-γ protein expression through mechanisms implicating AMPK pathway. Shown are representative blots of 3T3-adipocytes treated with the maximum nontoxic concentration (100 μM) of either CAME or CAEE. […] Data are expressed as C/EBP-β/β-actin (D), PPAR-γ/β-actin (E), phospho-Akt/pan-Akt (F) and phospho-AMPK/pan-AMPK (G). […]

The subject of a further test is C2C12 cells. Also on record: method as in Eid et al. [2010]. Particulars: cultured C2C12 cells; ref Eid et al. [2010]; cited from earlier work.
The test system of a further test is 3T3-L1 pre-adipocytes. The test is described as follows: Thymidine incorporation assay (mitotic clonal expansion). In kind it is cell-based. Particulars: Mus musculus, 3T3-L1 cells undergoing mitotic clonal expansion; for IC50: read-out: thymidine incorporation inhibition IC50. The protocol:
To assess for the inhibitory activity of CAME and CAEE on and mitotic clonal expansion of 3T3-L1 adipocytes, cells were separately treated with 12.5, 25, 50 and 100 μM of CAME or CAEE for […] in differentiation media and the incorporation of radio-labeled methyl-^3H-thymidine (MP Biomedicals cat #240410, Irvine, CA) into the newly replicated DNA was measured as described elsewhere (Martineau et al. [2010]). The incorporated radioactivity was measured in a liquid scintillation counter (LKB Wallac 1219 Rackbeta; Perkin Elmer Life and Analytical Sciences, Inc., Boston, MA).
Figure 3. (A and B) Anti-adipogenic effect of CAME and CAEE in 3T3-L1 adipocytes. Cells were treated with several concentrations (12.5, 25, 50 and100 μM) of either CAME or CAEE in DMEM containing 10% FBS and the standard adipogenic cocktail (500 μM 3-isobutyl-1-methylxanthine, 500 nM insulin and 10 μM dexamethasone) for 2 days then in DMEM containing 10% FBS and 500 nM insulin starting from days 2-8 of differentiation. This medium was changed every 2 days. (A) On day 8, lipid content was measured by AdipoRed assay. Results represent the means ± SEM of three independent experiments. *Indicates a significant (p ≤ 0.05) difference, **(p < 0.01), ***(p < 0.001) from the vehicle control group. […] Vehicle-treated cells show the presence of lipid droplets. On the other hand, cells treated with the maximum nontoxic concentration (100 μM) of either CAME or CAEE retained the fibroblast-like morphology of pre-adipocytes and were devoid of lipid droplets. (C) CAME and CAEE inhibit pre-adipocyte clonal expansion. Confluent 3T3-L1 pre-adipocytes undergoing clonal expansion in response to differentiation cues were treated with vehicle or 12.5, 25, 50 and 100 μM of either CAME or CAEE for 20 h and incorporation of ^3H-labeled thymidine was measured. Normalized data are presented as mean ± SEM of three independent experiments. **Indicates a significant (p ≤ 0.01) difference, ***(p < 0.001) from the vehicle control group.
In general terms: Incorporation of labelled thymidine or its analogues reports DNA synthesis.

For orientation: inhibition means how much of the control response was suppressed. High values mean a response far below the control, low ones a response near the control.

Consider `CCOC(=O)/C=C/c1ccc(O)c(O)c1` [CAEE, caffeic acid ethyl ester], for which, in the test with Akt, the “phosphorylation of Akt” value is reported as “did not increase”. In addition, the AMPK phosphorylation result in the test on AMPK is recorded as “increase in AMPK phosphorylation to the same extent as the positive control AICAR”. Besides, the “protein level of PPAR-γ” value with PPAR-γ is “significantly reduced”. The glucose uptake entry in the test with C2C12 cells is recorded as “potently enhanced glucose uptake”. Moreover, in the test on 3T3-L1 pre-adipocytes, the IC50 was 13.1 µM and at 100 µM the inhibition was 86.9 ± 3%.

As for `COC(=O)/C=C/c1ccc(O)c(O)c1` [CAME, CA methyl ester], the “phosphorylation of Akt” value in the test with Akt is “did not increase”. The AMPK phosphorylation result in the test with AMPK is given as “increase in AMPK phosphorylation to the same extent as the positive control AICAR”. In the test with PPAR-γ, the “protein level of PPAR-γ” value is reported as “significantly reduced”. The glucose uptake entry with C2C12 cells is on record as “potently enhanced glucose uptake”. For the same compound, in the test on 3T3-L1 pre-adipocytes, the IC50 came to 39.4 µM and the inhibition at 100 µM worked out at 92.7 ± 2.6%.
